Results published in patent US10420745B2 (priority 2015, dated 2019).

These molecules were tested on Clostridium perfringens-induced necrotic enteritis. Details: Ross 308 broilers, lower concentration in feed (2.5/2/1.5 kg/ton weeks 1/2/3), adsorbed on silica carrier, C. perfringens challenge days 17-20, scoring day 21; positive control 71%.
Assay type: in vivo, broiler chicken
In the case of `CCCCC(=O)OCC(O)CO` (stereo not shown) [Glyceryl monovalerate], the “animals within the group diagnosed as necrotic enteritis positive (macroscopic lesion score ≥2)” value is reported as 27%.

What follows are molecules tested on Clostridia perfringens. Details: minimum inhibitory concentration towards Clostridia perfringens, in vitro.
Assay type: cell-based
`CCCCC(=O)O` [Valeric acid] showed an MIC of 15 mmol.
`CCC(=O)OCC(O)CO` (stereo not shown) [Glyceryl monopropionate] gave an MIC of 250 mmol.
`CCCC(=O)O` [Butyric acid] showed an MIC of 62 mmol.
`CCCCC(=O)OCC(O)CO` (stereo not shown) [Glyceryl monovalerate] gave an MIC of 15 mmol.
`CCCC(=O)OCC(O)CO` (stereo not shown) [Glyceryl monobutyrate] was tested, and the MIC was 125 mmol.
Molecule `CCC(=O)O` [Propionic acid] has an MIC of 62 mmol.
